Experimental data published in ChEMBL document CHEMBL4680211, “Synthesis and structure-activity relationship study of water-soluble carbazole sulfonamide derivatives as new anticancer agents” (Eur J Med Chem, 2020).
pIC50: −log10 of the molar value.

Experiments:
[1] = Aqueous solubility of compound in water at pH 7.4 incubated at 20 degC by HPLC-UV analysis; assay type: physicochemical
HepG2 [2] = assay: Antiproliferative activity against human HepG2 cells measured after 48 hrs by SRB assay; assay type: functional, cell-based
Bel-7402 = assay: Antiproliferative activity against human Bel-7402 cells measured after 48 hrs by SRB assay; assay type: functional, cell-based
MCF7 = assay: Antiproliferative activity against human MCF7 cells measured after 48 hrs by SRB assay; assay type: functional, cell-based
HepG2 [3] = assay: Antitumor activity against human HepG2 cells xenografted in BALB/c nude mouse assessed as reduction in tumor volume administered for 29 days by caliper method; assay type: functional, cell-based; conditions: time 29.0 day
HepG2 [4] = assay: Antitumor activity against human HepG2 cells xenografted in iv dosed BALB/c nude mouse assessed as tumor growth inhibition administered every other day for 14 to 29 days; assay type: functional, organism-based; conditions: time 14-29 day
MDA-MB-231 = assay: Antitumor activity against human MDA-MB-231 cells xenografted in BALB/c nude mouse assessed as reduction in tumor burden at 60 mg/kg, ip qod for 14 to 29 days relative to control; assay type: functional; design: scale not given: the % may be the effect or the level left; conditions: time 14-29 day
[5] = Toxicity in human MDA-MB-231 cells xenografted BALB/c nude mouse assessed as effect on body weight at 60 mg/kg, ip qod for 14 to 29 days measured every two days during compound dosing; assay type: organism-based; conditions: in vivo, time 14-29 day

| SMILES | solubility [1] | pIC50 (HepG2 [2]; Homo sapiens, HepG2, 48 h) | pIC50 (Bel-7402; Homo sapiens, Bel-7402, 48 h) | pIC50 (MCF7; Homo sapiens, MCF7, 48 h) | further results |
| --- | --- | --- | --- | --- | --- |
| COc1ccc(N(CCOC(=O)CN2CCN(C)CC2)S(=O)(=O)c2ccc3c(c2)c2ccccc2n3C)c(OC)n1.Cl | > 30 mg/mL | – | – | – | – |
| COc1ccc(N(CCN2CCOCC2)S(=O)(=O)c2ccc3c(c2)c2ccccc2n3C)c(OC)n1 | – | 5.97 | 5.57 | 5.33 | – |
| COc1ccc(N(CCOP(=O)([O-])[O-])S(=O)(=O)c2ccc3c(c2)c2ccccc2n3C)c(OC)n1.Cl.[Na+].[Na+] | 22.4 mg/mL | – | – | – | – |
| COc1ccc(N(CCCN(C)C)S(=O)(=O)c2ccc3c(c2)c2ccccc2n3C)c(OC)n1 | – | 5.56 | 4.96 | 5.15 | – |
| COc1ccc(N(CCn2ccnc2)S(=O)(=O)c2ccc3c(c2)c2ccccc2n3C)c(OC)n1 | – | 5.90 | 5.59 | 5.34 | – |
| COc1ccc(N(C(=O)CCN2CCCCC2)S(=O)(=O)c2ccc3c(c2)c2ccccc2n3C)c(OC)n1.Cl | 18.6 mg/mL | – | – | – | – |
| COc1ccc(N(CCN2CCSCC2)S(=O)(=O)c2ccc3c(c2)c2ccccc2n3C)c(OC)n1 | – | 5.87 | 5.39 | 5.34 | – |
| COc1ccc(N(CCN2CCN(C)CC2)S(=O)(=O)c2ccc3c(c2)c2ccccc2n3C)c(OC)n1.Cl | 25.7 mg/mL | – | – | – | – |
| COc1ccc(N(CCN2CCC3(CCN(C)CC3)C2)S(=O)(=O)c2ccc3c(c2)c2ccccc2n3C)c(OC)n1 | – | 5.55 | 5.37 | 4.84 | – |
| COc1ccc(N(CCOP(=O)(O)O)S(=O)(=O)c2ccc3c(c2)c2ccccc2n3C)c(OC)n1 [listing 1 of 2 here] | – | – | – | – | Activity (HepG2 [3]): Dose-dependent effect |
| COc1ccc(N(CCCN2CCC(N3CCCC3)CC2)S(=O)(=O)c2ccc3c(c2)c2ccccc2n3C)c(OC)n1 | – | 5.41 | 5.20 | 4.80 | – |
| COc1ccc(N(CCN2CCCC2)S(=O)(=O)c2ccc3c(c2)c2ccccc2n3C)c(OC)n1.Cl | 0.6 mg/mL | – | – | – | – |
| COc1ccc(N(CCN)S(=O)(=O)c2ccc3c(c2)c2ccccc2n3C)c(OC)n1.Cl | 0.24 mg/mL | – | – | – | – |
| COc1ccc(NS(=O)(=O)c2ccc3c(c2)c2ccc(OP(=O)([O-])[O-])cc2n3C)c(OC)n1.Cl.[Na+].[Na+] | > 30 mg/mL | – | – | – | – |
| COc1ccc(N(CC(N)=O)S(=O)(=O)c2ccc3c(c2)c2ccccc2n3C)c(OC)n1.Cl | 0.02 mg/mL | – | – | – | – |
| COc1ccc(N(CCN2CCC3(CCN(C)CC3)C2)S(=O)(=O)c2ccc3c(c2)c2ccccc2n3C)c(OC)n1.Cl | > 30 mg/mL | – | – | – | – |
| COc1ccc(N(CCO)S(=O)(=O)c2ccc3c(c2)c2ccccc2n3C)c(OC)n1 | – | 5.39 | 5.38 | 5.84 | – |
| COc1ccc(N(CCOC(N)=O)S(=O)(=O)c2ccc3c(c2)c2ccccc2n3C)c(OC)n1 | – | 5.29 | < 4.60 | – | – |
| COc1ccc(N(CCNC(=O)CN)S(=O)(=O)c2ccc3c(c2)c2ccccc2n3C)c(OC)n1.Cl.Cl | > 30 mg/mL | – | – | – | – |
| COc1ccc(N(CCN2CCN(C)CC2)S(=O)(=O)c2ccc3c(c2)c2ccccc2n3C)c(OC)n1 | – | – | – | – | TGI (HepG2 [4]): Dose-dependent effect |
| COc1ccc(N(CCN2CCSCC2)S(=O)(=O)c2ccc3c(c2)c2ccccc2n3C)c(OC)n1.Cl | 0.27 mg/mL | – | – | – | – |
| COc1ccc(N(CCCN2CCC3(CCN(C)CC3)C2)S(=O)(=O)c2ccc3c(c2)c2ccccc2n3C)c(OC)n1.Cl | > 30 mg/mL | – | – | – | – |
| COc1ccc(NS(=O)(=O)c2ccc3c(c2)c2ccc(O)cc2n3C)c(OC)n1.Cl | 0.0015 mg/mL | – | – | – | – |
| COc1ccc(N(C(=O)CCN2CCN(C)CC2)S(=O)(=O)c2ccc3c(c2)c2ccccc2n3C)c(OC)n1.Cl | 17.6 mg/mL | – | – | – | – |
| COc1ccc(N(CCN2CCOCC2)S(=O)(=O)c2ccc3c(c2)c2ccccc2n3C)c(OC)n1.Cl | 0.44 mg/mL | – | – | – | – |

| SMILES | solubility [1] | pIC50 (HepG2 [2]; Homo sapiens, HepG2, 48 h) | pIC50 (Bel-7402; Homo sapiens, Bel-7402, 48 h) | pIC50 (MCF7; Homo sapiens, MCF7, 48 h) | further results |
| --- | --- | --- | --- | --- | --- |
| COc1ccc(N(CCCn2ccnc2)S(=O)(=O)c2ccc3c(c2)c2ccccc2n3C)c(OC)n1 | – | 5.86 | 5.33 | 5.34 | – |
| COc1ccc(N(CCN2CCC(N3CCCC3)CC2)S(=O)(=O)c2ccc3c(c2)c2ccccc2n3C)c(OC)n1.Cl | > 30 mg/mL | – | – | – | – |
| COc1ccc(N(CCN2CCCCC2)S(=O)(=O)c2ccc3c(c2)c2ccccc2n3C)c(OC)n1.Cl | 0.58 mg/mL | – | – | – | – |
| COc1ccc(N(CCCN2CCC3(CCN(C)CC3)C2)S(=O)(=O)c2ccc3c(c2)c2ccccc2n3C)c(OC)n1 | – | 5.44 | 5.21 | 4.67 | – |
| COc1ccc(N(C(=O)CCN2CCCCC2)S(=O)(=O)c2ccc3c(c2)c2ccccc2n3C)c(OC)n1 | – | 6.46 | 6.14 | 5.94 | Activity (MDA-MB-231): 40.1%; Activity [5]: Non-Toxic |
| COc1ccc(N(CCOC(=O)CN2CCN(C)CC2)S(=O)(=O)c2ccc3c(c2)c2ccccc2n3C)c(OC)n1 | – | 5.37 | 5.31 | 5.22 | – |
| COc1ccc(NS(=O)(=O)c2ccc3c(c2)c2ccccc2n3C)c(OC)n1 | < 0.001 mg/mL | 7.02 | – | 6.17 | – |
| COc1ccc(N(CCN(C)C)S(=O)(=O)c2ccc3c(c2)c2ccccc2n3C)c(OC)n1.Cl | 29.1 mg/mL | – | – | – | – |
| COc1ccc(N(CCCN2CCC(N3CCCC3)CC2)S(=O)(=O)c2ccc3c(c2)c2ccccc2n3C)c(OC)n1.Cl | > 30 mg/mL | – | – | – | – |
| COc1ccc(N(CCCN2CCN(C)CC2)S(=O)(=O)c2ccc3c(c2)c2ccccc2n3C)c(OC)n1.Cl | 20.6 mg/mL | – | – | – | – |
| COc1ccc(N(CCCN2CCN(C)CC2)S(=O)(=O)c2ccc3c(c2)c2ccccc2n3C)c(OC)n1 | – | 5.25 | 4.93 | 4.68 | – |
| COc1ccc(N(CCO)S(=O)(=O)c2ccc3c(c2)c2ccccc2n3C)c(OC)n1.Cl | 0.15 mg/mL | – | – | – | – |
| COc1ccc(N(CCNC(=O)CN)S(=O)(=O)c2ccc3c(c2)c2ccccc2n3C)c(OC)n1 | – | 5.90 | 5.66 | 5.80 | – |
| COc1ccc(N(CCN)S(=O)(=O)c2ccc3c(c2)c2ccccc2n3C)c(OC)n1 | – | 5.32 | 5.36 | 5.18 | – |
| COc1ccc(/C=C\c2cc(OC)c(OC)c(OC)c2)cc1O [COMBRETASTATIN A4] | – | 8.70 | 7.08 | 8.52 | – |
| COc1ccc(N(CCOP(=O)(O)O)S(=O)(=O)c2ccc3c(c2)c2ccccc2n3C)c(OC)n1 [listing 2 of 2 here] | – | – | – | – | pIC50 (HepG2 [2]; hepg2): 6.13; pIC50 (Bel-7402; bel-7402): 5.94; pIC50 (MCF7; mcf7): 6.00 |
| COc1ccc(N(CCN2CCCCC2)S(=O)(=O)c2ccc3c(c2)c2ccccc2n3C)c(OC)n1 | – | 5.69 | 5.30 | 5.24 | – |
| COc1ccc(N(CC(N)=O)S(=O)(=O)c2ccc3c(c2)c2ccccc2n3C)c(OC)n1 | – | 5.71 | 5.45 | 5.37 | – |
| COc1ccc(N(CCCn2ccnc2)S(=O)(=O)c2ccc3c(c2)c2ccccc2n3C)c(OC)n1.Cl | 18.4 mg/mL | – | – | – | – |
| COc1ccc(N(CCOP(=O)(O)O)S(=O)(=O)c2ccc3c(c2)c2ccccc2n3C)c(OC)n1.Cl | 1.75 mg/mL | – | – | – | – |
| COc1ccc(N(CCn2ccnc2)S(=O)(=O)c2ccc3c(c2)c2ccccc2n3C)c(OC)n1.Cl | 21.5 mg/mL | – | – | – | – |
| COc1ccc(N(C(=O)CCN2CCN(C)CC2)S(=O)(=O)c2ccc3c(c2)c2ccccc2n3C)c(OC)n1 | – | 7.15 | 6.70 | 6.77 | – |
| COc1ccc(N(CCOC(N)=O)S(=O)(=O)c2ccc3c(c2)c2ccccc2n3C)c(OC)n1.Cl | 0.47 mg/mL | – | – | – | – |
| COc1ccc(N(CCCN(C)C)S(=O)(=O)c2ccc3c(c2)c2ccccc2n3C)c(OC)n1.Cl | 20.5 mg/mL | – | – | – | – |
| COc1ccc(N(CCN2CCCC2)S(=O)(=O)c2ccc3c(c2)c2ccccc2n3C)c(OC)n1 | – | 5.50 | 5.30 | 5.24 | – |
